Molecules are shown by their SMILES. ± gives the expanded uncertainty stated by the source.

This series in a line: activity coefficient (dimensionless); of the first substance listed, at infinite dilution; xn = mol fraction of the nth substance listed. The settings on record: 101 kPa, Liquid, Chromatography, x1 = 0.

Regarding `C1CCCCC1` [cyclohexane] + CCCC[N+]1(C)CCOCC1.N#C[C-](C#N)C#N, the activity coefficient is, setting by setting: (318.15 K) 22.6 ± 1.5; (328.15 K) 20.8 ± 1.4; (338.15 K) 19.3 ± 1.3; (348.15 K) 18 ± 1.2; (358.15 K) 16.9 ± 1.2; (368.15 K) 16 ± 1.1.

For `C1=CCCCC1` [cyclohexene] + CCCC[N+]1(C)CCOCC1.N#C[C-](C#N)C#N, the activity coefficient is 9.44 ± 0.64 (318.15 K); 9.08 ± 0.62 (328.15 K); 8.71 ± 0.59 (338.15 K); 8.46 ± 0.58 (348.15 K); 8.16 ± 0.56 (358.15 K); 7.92 ± 0.54 (368.15 K).

Regarding `C1CCCCCCC1` [cyclooctane] + CCCC[N+]1(C)CCOCC1.N#C[C-](C#N)C#N, the activity coefficient by setting is: (318.15 K) 37 ± 2.5; (328.15 K) 34.1 ± 2.3; (338.15 K) 31.2 ± 2.1; (348.15 K) 29.1 ± 2; (358.15 K) 27 ± 1.8; (368.15 K) 25.1 ± 1.7.

Regarding `C1CCCC1` [cyclopentane] + CCCC[N+]1(C)CCOCC1.N#C[C-](C#N)C#N, the activity coefficient runs as follows: (318.15 K) 14.7 ± 1; (328.15 K) 13.7 ± 0.9; (338.15 K) 12.8 ± 0.9; (348.15 K) 12.1 ± 0.8; (358.15 K) 11.4 ± 0.8; (368.15 K) 10.9 ± 0.7.

On to `CCCCCCCCCC` [decane] + CCCC[N+]1(C)CCOCC1.N#C[C-](C#N)C#N, for which the activity coefficient was determined as 289 ± 20 (318.15 K); 251 ± 17 (328.15 K); 224 ± 15 (338.15 K); 202 ± 14 (348.15 K); 183 ± 13 (358.15 K); 166 ± 11 (368.15 K).

On to `CCOCC` [diethyl ether] + CCCC[N+]1(C)CCOCC1.N#C[C-](C#N)C#N, for which the activity coefficient (318.15 K) is 5.39 ± 0.37; the activity coefficient (328.15 K) amounted to 5.33 ± 0.36; the activity coefficient (338.15 K) came to 5.27 ± 0.36; the activity coefficient (348.15 K) came out at 5.24 ± 0.36; the activity coefficient (358.15 K) was 5.21 ± 0.36; the activity coefficient (368.15 K) was found to be 5.16 ± 0.35.

Consider `CC(C)OC(C)C` [diisopropyl ether] + CCCC[N+]1(C)CCOCC1.N#C[C-](C#N)C#N, for which the activity coefficient reads like this: (318.15 K) 17.8 ± 1.2; (328.15 K) 17.4 ± 1.2; (338.15 K) 16.8 ± 1.1; (348.15 K) 16.5 ± 1.1; (358.15 K) 16 ± 1.1; (368.15 K) 15.6 ± 1.1.

On to `CCCOCCC` [dipropyl ether] + CCCC[N+]1(C)CCOCC1.N#C[C-](C#N)C#N, for which the activity coefficient by setting is: (318.15 K) 16.4 ± 1.1; (328.15 K) 15.9 ± 1.1; (338.15 K) 15.4 ± 1.1; (348.15 K) 14.9 ± 1; (358.15 K) 14.4 ± 1; (368.15 K) 13.9 ± 1.

With `CCO` [ethanol] + CCCC[N+]1(C)CCOCC1.N#C[C-](C#N)C#N, the activity coefficient is 1.26 ± 0.08 (318.15 K); 1.19 ± 0.08 (328.15 K); 1.12 ± 0.07 (338.15 K); 1.06 ± 0.07 (348.15 K); 1.01 ± 0.06 (358.15 K); 0.965 ± 0.061 (368.15 K).

Turning to `CCOC(C)=O` [ethyl acetate] + CCCC[N+]1(C)CCOCC1.N#C[C-](C#N)C#N, the activity coefficient was 1.88 ± 0.13 (318.15 K); 1.9 ± 0.13 (328.15 K); 1.92 ± 0.13 (338.15 K); 1.93 ± 0.13 (348.15 K); 1.96 ± 0.13 (358.15 K); 1.98 ± 0.13 (368.15 K).

On to `CCc1ccccc1` [ethylbenzene] + CCCC[N+]1(C)CCOCC1.N#C[C-](C#N)C#N, for which the activity coefficient by setting is: (318.15 K) 3.74 ± 0.25; (328.15 K) 3.74 ± 0.25; (338.15 K) 3.75 ± 0.26; (348.15 K) 3.75 ± 0.26; (358.15 K) 3.75 ± 0.26; (368.15 K) 3.75 ± 0.26.

As for `CCCCCCC` [heptane] + CCCC[N+]1(C)CCOCC1.N#C[C-](C#N)C#N, the activity coefficient is, setting by setting: (318.15 K) 84 ± 5.8; (328.15 K) 76.8 ± 5.3; (338.15 K) 69.6 ± 4.8; (348.15 K) 63.3 ± 4.3; (358.15 K) 58.7 ± 4; (368.15 K) 53.7 ± 3.7.

On to `C=CCCCC` [hex-1-ene] + CCCC[N+]1(C)CCOCC1.N#C[C-](C#N)C#N, for which the activity coefficient amounted to 22.6 ± 1.5 (318.15 K); 21.3 ± 1.5 (328.15 K); 20 ± 1.4 (338.15 K); 19.1 ± 1.3 (348.15 K); 18.2 ± 1.2 (358.15 K); 17.4 ± 1.2 (368.15 K).

Regarding `CCCCCC` [hexane] + CCCC[N+]1(C)CCOCC1.N#C[C-](C#N)C#N, the activity coefficient (318.15 K) worked out at 56.5 ± 3.9; the activity coefficient (328.15 K) stood at 51.1 ± 3.5; the activity coefficient (338.15 K) was 46.7 ± 3.2; the activity coefficient (348.15 K) is 43.2 ± 3; the activity coefficient (358.15 K) was determined as 40.3 ± 2.8; the activity coefficient (368.15 K) worked out at 37.2 ± 2.5.

As to `CO` [methanol] + CCCC[N+]1(C)CCOCC1.N#C[C-](C#N)C#N, the activity coefficient is 0.825 ± 0.053 (318.15 K); 0.79 ± 0.051 (328.15 K); 0.762 ± 0.05 (338.15 K); 0.729 ± 0.048 (348.15 K); 0.704 ± 0.047 (358.15 K); 0.677 ± 0.046 (368.15 K).

Take `CCCC(=O)OC` [methyl butanoate] + CCCC[N+]1(C)CCOCC1.N#C[C-](C#N)C#N: the activity coefficient by setting is: (318.15 K) 2.42 ± 0.16; (328.15 K) 2.46 ± 0.17; (338.15 K) 2.49 ± 0.17; (348.15 K) 2.51 ± 0.17; (358.15 K) 2.54 ± 0.17; (368.15 K) 2.56 ± 0.17.

For `COC(C)=O` [methyl ethanoate] + CCCC[N+]1(C)CCOCC1.N#C[C-](C#N)C#N, the activity coefficient runs as follows: (318.15 K) 1.2 ± 0.08; (328.15 K) 1.23 ± 0.08; (338.15 K) 1.24 ± 0.08; (348.15 K) 1.26 ± 0.08; (358.15 K) 1.29 ± 0.08; (368.15 K) 1.3 ± 0.08.

As to `CCC(=O)OC` [methyl propanoate] + CCCC[N+]1(C)CCOCC1.N#C[C-](C#N)C#N, the activity coefficient amounted to 1.64 ± 0.11 (318.15 K); 1.67 ± 0.11 (328.15 K); 1.7 ± 0.11 (338.15 K); 1.73 ± 0.12 (348.15 K); 1.76 ± 0.12 (358.15 K); 1.79 ± 0.12 (368.15 K).

As for `CC1CCCCC1` [methylcyclohexane] + CCCC[N+]1(C)CCOCC1.N#C[C-](C#N)C#N, the activity coefficient (318.15 K) is 35.2 ± 2.4; the activity coefficient (328.15 K) was determined as 32.3 ± 2.2; the activity coefficient (338.15 K) was determined as 29.7 ± 2; the activity coefficient (348.15 K) was found to be 27.6 ± 1.9; the activity coefficient (358.15 K) was determined as 25.7 ± 1.8; the activity coefficient (368.15 K) is 24 ± 1.6.

As for `CCCCCCCCC` [nonane] + CCCC[N+]1(C)CCOCC1.N#C[C-](C#N)C#N, the activity coefficient by setting is: (318.15 K) 187 ± 13; (328.15 K) 168 ± 12; (338.15 K) 151 ± 10; (348.15 K) 137 ± 9; (358.15 K) 126 ± 9; (368.15 K) 115 ± 8.

On to `C=CCCCCCC` [oct-1-ene] + CCCC[N+]1(C)CCOCC1.N#C[C-](C#N)C#N, for which the activity coefficient by setting is: (318.15 K) 52.7 ± 3.6; (328.15 K) 49.1 ± 3.4; (338.15 K) 45.7 ± 3.1; (348.15 K) 43 ± 2.9; (358.15 K) 40.6 ± 2.8; (368.15 K) 38.1 ± 2.6.

For the molecule `CCCCCCCC` [octane] + CCCC[N+]1(C)CCOCC1.N#C[C-](C#N)C#N, the activity coefficient is, setting by setting: (318.15 K) 125 ± 9; (328.15 K) 113 ± 8; (338.15 K) 102 ± 7; (348.15 K) 93.4 ± 6.4; (358.15 K) 86.5 ± 5.9; (368.15 K) 78.6 ± 5.4.

Consider `CCCC(C)=O` [pentan-2-one] + CCCC[N+]1(C)CCOCC1.N#C[C-](C#N)C#N, for which the activity coefficient is, setting by setting: (318.15 K) 1.44 ± 0.09; (328.15 K) 1.47 ± 0.1; (338.15 K) 1.49 ± 0.1; (348.15 K) 1.5 ± 0.1; (358.15 K) 1.53 ± 0.1; (368.15 K) 1.54 ± 0.1.

Regarding `CCC(=O)CC` [pentan-3-one] + CCCC[N+]1(C)CCOCC1.N#C[C-](C#N)C#N, the activity coefficient came to 1.42 ± 0.09 (318.15 K); 1.44 ± 0.09 (328.15 K); 1.47 ± 0.1 (338.15 K); 1.49 ± 0.1 (348.15 K); 1.51 ± 0.1 (358.15 K); 1.54 ± 0.1 (368.15 K).

For `CCCCC` [pentane] + CCCC[N+]1(C)CCOCC1.N#C[C-](C#N)C#N, the activity coefficient reads like this: (318.15 K) 39.7 ± 2.7; (328.15 K) 35.5 ± 2.4; (338.15 K) 32.2 ± 2.2; (348.15 K) 29.8 ± 2; (358.15 K) 27.7 ± 1.9; (368.15 K) 26.2 ± 1.8.

`CCCO` [propan-1-ol] + CCCC[N+]1(C)CCOCC1.N#C[C-](C#N)C#N: the activity coefficient (318.15 K) was determined as 1.62 ± 0.11; the activity coefficient (328.15 K) worked out at 1.52 ± 0.1; the activity coefficient (338.15 K) was determined as 1.43 ± 0.09; the activity coefficient (348.15 K) was 1.35 ± 0.09; the activity coefficient (358.15 K) came to 1.29 ± 0.08; the activity coefficient (368.15 K) worked out at 1.23 ± 0.08.

Take `CC(C)O` [propan-2-ol] + CCCC[N+]1(C)CCOCC1.N#C[C-](C#N)C#N: the activity coefficient was 1.71 ± 0.11 (318.15 K); 1.59 ± 0.11 (328.15 K); 1.5 ± 0.1 (338.15 K); 1.4 ± 0.09 (348.15 K); 1.33 ± 0.09 (358.15 K); 1.25 ± 0.08 (368.15 K).

In the case of `c1ccncc1` [pyridine] + CCCC[N+]1(C)CCOCC1.N#C[C-](C#N)C#N, the activity coefficient reads like this: (318.15 K) 0.733 ± 0.049; (328.15 K) 0.748 ± 0.049; (338.15 K) 0.758 ± 0.05; (348.15 K) 0.766 ± 0.05; (358.15 K) 0.766 ± 0.05; (368.15 K) 0.788 ± 0.051.
